tested on: muscarinic receptors; test: Muscarinic binding: displacement of [3H]N-methylscopolamine, rat frontal cortical membranes; details: 10^−6 M test compound, single determination, [3H]N-methylscopolamine
Method: Frontal cortical tissue from the brains of male Charles River rats weighing 150-250 g was homogenised in ice-cold 20 mM HEPES buffer, pH 7.5 (measured at 25° C.) containing 100 mM sodium chloride and 10 mM magnesium chloride (1:10 w/v) using a Polytron PT3100 (speed setting 21,700 rpm, 3×5 seconds) and centrifuged at 49,500 g for 30 minutes at 4° C. The supernatant was discarded and the pellet rehomogenised in 20 mM HEPES buffer, pH 7.5 containing 100 mM sodium chloride and 10 mM magnesium chloride (equivalent to 12.5 mg wet weight of tissue/ml). Membranes were stored at −80° C. until required.
Membranes were thawed, diluted 1:10 in ice-cold 20 mM HEPES buffer, pH 7.5 containing 100 mM sodium chloride and 10 mM magnesium chloride and homogenised using a Polytron PT3100 as above. Diluted membranes (200 μl; equivalent to 0.25 mg wet weight of tissue/tube) were incubated with 200 μl of 20 mM HEPES buffer, pH 7.5 containing 100 mM sodium chloride and 10 mM magnesium chloride and 50 μl [^3H]N-methylscopolamine at a single concentration of 0.15 nM and 50 μl distilled water (total binding) or 50 μl test compound (at a single concentration of 10^−6 M or at 10 concentrations ranging from 10^−11-10^−3 M) or 50 μl atropine sulphate (1 μM; non-specific binding) for 30 min at 30° C. Membrane bound radioactivity was recovered by filtration under vacuum through Skatron 11734 filters using a Skatron cell harvester. Filters were rapidly washed with ice-cold 20 mM HEPES buffer, pH 7.5 (wash 1,2 at setting 5,5). The scored filter paper discs were punched out into vials, scintillation fluid added and radioactivity determined by liquid scintillation counting.
For each of these tests measuring the ability of compounds of Formula I to displace standard ligands from 5-HT1A receptors and 5-hydroxytryptamine (5-HT) and noradrenaline (NA) reuptake sites and muscarinic receptors in vitro, the percentage displacement of specific binding of tritiated ligand by 10^−6 M test compound was calculated in the following way.
Firstly, specific binding of tritiated ligand in the absence (A) and presence (B) of test compound was determined:
In the absence of compound: A(dpm)=Total binding (dpm)−Non-specific binding (dpm) In the presence of compound (10^−6 M): B(dpm)=Binding at 10^−6M (dpm)−Non-specific binding (dpm)
The specific binding of tritiated ligand in the presence (B) of compound was then converted to a percentage of specific binding of tritiated ligand in the absence (A) of compound: % Specific binding at 10^−6 M=B(dpm)/A(dpm)×100
The percentage displacement of specific binding of tritiated ligand by the test compound (10^−6 M) was then obtained by subtraction of the percentage specific binding in the presence of compound from the percentage specific binding in the absence of compound, which is taken as the maximum binding and so equals 100%:
% Displacement at 10^−6 M=100−% Specific binding at 10^−6 M.
In some cases, displacement curves were then produced for compounds which displaced ≧50% of specific binding of the tritiated ligand at 10^−6 M using a range of concentrations of the compound. The Ki was then calculated by simultaneous fitting using equations derived from the Feldman equations by robust non-linear regression to data from three experiments simultaneously (De Lean et al., 1978; Munson and Rodbard, 1980; Feldman, 1992). Munson P J and Rodbard D. Ligand: a versatile computerised approach for characterisation of ligand binding systems. Anal Biochem 1980; 107: 220. Feldman HA. Mathematical theory of complex ligand binding systems at equilibrium: some methods for parameter fitting. Anal Biochem 1992: 48, 317. De Lean A, Munson P J and Rodbard D. Simultaneous analysis of families of sigmoidal curves: application to bioassay, radioligand assay, and physiological dose-response curves. Am J Physiol 1978: 235 (2), E97-E102. […]

SMILES | Muscarinic % displacement at 10^−6 M [%]
Br.Clc1cccc2sc(C3=CSC4=NCCN34)cc12 [Example 1, 3-(4-chlorobenzo[b]thiophen-2-yl)-5,6-dihydroimidazo[2,1-b]thiazole hydrobromide] | 7
C1=C(c2cccc3sccc23)N2CCN=C2S1.Cl [Example 2, 3-(benzo[b]thiophen-4-yl)-5,6-dihydroimidazo[2,1-b]thiazole hydrochloride] | 20
OCC1=C(c2cccc3sccc23)N2CCN=C2S1 [Example 3, [3-(benzo[b]thiophen-4-yl)-5,6-dihydroimidazo[2,1-b]thiazol-2-yl]methanol] | −3
OCC1=C(c2cc3c(Cl)cccc3s2)N2CCN=C2S1 [Example 4, [3-(4-chlorobenzo[b]thiophen-2-yl)-5,6-dihydroimidazo[2,1-b]thiazol-2-yl]methanol] | 0
Cl.Fc1cccc2sc(C3=CSC4=NCCN34)cc12 [Example 5, 3-(4-fluorobenzo[b]thiophen-2-yl)-5,6-dihydroimidazo[2,1-b]thiazole hydrochloride] | 42
Br.CC1=C(c2cc3ccccc3s2)N2CCN=C2S1 [Example 6, 3-(benzo[b]thiophen-2-yl)-2-methyl-5,6-dihydroimidazo[2,1-b]thiazole hydrobromide] | −2
Br.CC1=C(c2cc3c(F)cccc3s2)N2CCN=C2S1 [Example 7, 3-(4-fluorobenzo[b]thiophen-2-yl)-2-methyl-5,6-dihydroimidazo[2,1-b]thiazole hydrobromide] | 17
Br.CC1=C(c2cccc3sccc23)N2CCN=C2S1 [Example 8, 3-(benzo[b]thiophen-4-yl)-2-methyl-5,6-dihydroimidazo[2,1-b]thiazole hydrobromide] | 0
CC1=C(c2cccc3sccc23)N2CCN=C2S1.Cl [Example 9, 3-(benzo[b]thiophen-4-yl)-2-methyl-5,6-dihydroimidazo[2,1-b]thiazole hydrochloride] | 13
Br.CC1=C(c2cc3c(Cl)cccc3s2)N2CCN=C2S1 [Example 10, 3-(4-chlorobenzo[b]thiophen-2-yl)-2-methyl-5,6-dihydroimidazo[2,1-b]thiazole hydrobromide] | 12
Br.CCC1=C(c2cc3cc(Cl)ccc3s2)N2CCN=C2S1 [Example 11, 3-(5-chlorobenzo[b]thiophen-2-yl)-2-ethyl-5,6-dihydroimidazo[2,1-b]thiazole hydrobromide] | 44
Br.Oc1cccc2sc(C3=CSC4=NCCN34)cc12 [Example 12, 2-(5,6-dihydroimidazo[2,1-b]thiazol-3-yl)benzo[b]thiophen-4-ol hydrobromide] | 22
Cc1cccc2sc(C3=CSC4=NCCN34)cc12.Cl [Example 14, 3-(4-methylbenzo[b]thiophen-2-yl)-5,6-dihydroimidazo[2,1-b]thiazole hydrochloride] | 9
OCC1=C(c2cc3ccccc3s2)N2CCN=C2S1 [Example 15, [3-(benzo[b]thiophen-2-yl)-5,6-dihydroimidazo[2,1-b]thiazol-2-yl]methanol] | −15
Br.CC1=C(c2cc3c(C)cccc3s2)N2CCN=C2S1 [Example 16, 2-methyl-3-(4-methylbenzo[b]thiophen-2-yl)-5,6-dihydroimidazo[2,1-b]thiazole hydrobromide] | 0
Br.CC1=C(c2cc3c(Cl)cccc3s2)N2CCCN=C2S1 [Example 17, 3-(4-chlorobenzo[b]thiophen-2-yl)-2-methyl-6,7-dihydro-5H-thiazolo[3,2-a]pyrimidine hydrobromide] | 29
Br.CCC1=C(c2cc3c(Cl)cccc3s2)N2CCN=C2S1 [Example 18, 3-(4-chlorobenzo[b]thiophen-2-yl)-2-ethyl-5,6-dihydroimidazo[2,1-b]thiazole hydrobromide] | 12
CSC1=C(c2cc3ccccc3s2)N2CCN=C2S1 [Example 19, 3-(benzo[b]thiophen-2-yl)-2-(methylthio)-5,6-dihydroimidazo[2,1-b]thiazole] | 2
Br.CC1=C(c2cc3cccc(Cl)c3s2)N2CCN=C2S1 [Example 20, 3-(7-chlorobenzo[b]thiophen-2-yl)-2-methyl-5,6-dihydroimidazo[2,1-b]thiazole hydrobromide] | 16
Br.CC1=C(c2ccc3sccc3c2)N2CCN=C2S1 [Example 21, 3-(benzo[b]thiophen-5-yl)-2-methyl-5,6-dihydroimidazo[2,1-b]thiazole hydrobromide] | 9
CC1=C(c2cccc3ccsc23)N2CCN=C2S1.Cl [Example 23, 3-(benzo[b]thiophen-7-yl)-2-methyl-5,6-dihydroimidazo[2,1-b]thiazole hydrochloride] | −5
Br.CC1=C(c2cc3c(Cl)c(Cl)ccc3s2)N2CCN=C2S1 [Example 24, 3-(4,5-dichlorobenzo[b]thiophen-2-yl)-2-methyl-5,6-dihydroimidazo[2,1-b]-thiazole hydrobromide] | −10
Br.COc1cccc2cc(C3=C(C)SC4=NCCN43)sc12 [Example 26, 3-(7-methoxybenzo[b]thiophen-2-yl)-2-methyl-5,6-dihydroimidazo[2,1-b]thiazole hydrobromide] | −11
Br.CC1(c2cc3cc(F)ccc3s2)CSC2=NCCN21 (centres unmarked) [Example 27, 3-(5-fluorobenzo[b]thiophen-2-yl)-3-methyl-5,6-dihydroimidazo[2,1-b]thiazole hydrobromide] | −1
OCC1=C(c2ccc3sccc3c2)N2CCN=C2S1 [Example 28, [3-(benzo[b]thiophen-5-yl)-5,6-dihydroimidazo[2,1-b]-thiazol-2-yl]methanol] | −8
CSC1=C(c2ccc3sccc3c2)N2CCN=C2S1 [Example 30, 3-(benzo[b]thiophen-5-yl)-2-(methylthio)-5,6-dihydroimidazo[2,1-b]thiazole] | 12
CCC1=C(c2ccc3sccc3c2)N2CCN=C2S1.O=C(O)/C=C/C(=O)O [Example 31, 3-(benzo[b]thiophen-5-yl)-2-ethyl-5,6-dihydroimidazo[2,1-b]thiazole fumarate] | 26

same assay, conditions: [3H]N-methylscopolamine 0.15 nM, rat frontal cortical membranes

SMILES | Ki [nM]
Br.CCC1=C(c2cccc3sccc23)N2CCN=C2S1 [Example 13, 3-(benzo[b]thiophen-4-yl)-2-ethyl-5,6-dihydroimidazo[2,1-b]thiazole hydrobromide] | 371
CSC1=C(c2cccc3sccc23)N2CCN=C2S1.Cl [Example 22, 3-(benzo[b]thiophen-4-yl)-2-(methylthio)-5,6-dihydroimidazo[2,1-b]thiazole hydrochloride] | 439
CC(C)C1=C(c2ccc3sccc3c2)N2CCN=C2S1 [Example 29, 3-(benzo[b]thiophen-5-yl)-2-(1-methylethyl)-5,6-dihydroimidazo[2,1-b]-thiazole] | 798

same assay, conditions: [3H]N-methylscopolamine 0.15 nM, rat frontal cortical membranes; fumarate

SMILES | Ki [nM]
CCC1=C(c2cccc3sccc23)N2CCN=C2S1.O=C(O)/C=C/C(=O)O [Example 25, 3-(benzo[b]thiophen-4-yl)-2-ethyl-5,6-dihydroimidazo[2,1-b]thiazole fumarate] | 249
CSC1=C(c2cccc3sccc23)N2CCN=C2S1.O=C(O)/C=C/C(=O)O [Example 32, 3-(benzo[b]thiophen-4-yl)-2-(methylthio)-5,6-dihydroimidazo[2,1-b]thiazole fumarate] | 331

Source: patent US6900216B2, “Dihydroimidazo[2,1-b]thiazole and dihydro-5h-thiazolo[3,2-A]pyrimidines as antidepressant agents” (Knoll GmbH, priority 2000, dated 2005)
